Results: patent publication US20070087978A1, “Method of Controlling Animal Pests” (priority 1999, published 2007)

Tests used:
[1] = tested on: silverleaf whitefly, Bemista argentifolii; type: in vivo; settings: 3 days after treatment, rate 2.5 oz/10 gal. water
Description: In another study, twenty poinsettia plants were planted into 6.0 inch containers and were grown in a greenhouse and arranged in a completely randomized design (CRD). […] Plants were sampled before (precount) and 3 days after treatment (DAT) by randomly harvesting 10 leaves from each plant and then counting the number of live and dead whitefly nymphs.
All data were analyzed in a completely randomized design using a two-way analysis of variance (ANOVA) for the number of live whitefly nymphs and percent mortality 3 days after treatment. Percent mortality was determined by dividing the number of dead whiteflies by the total number of whiteflies (alive and dead).

Erwinia (Fireblight) = settings: in vivo
From the text: A series of foliar sprays was applied before, during and after bloom and later in the season as needed. […] This unexpected, unusual multiple benefit indicates a phytotherapeutic defense wherein the copper molecule, it is believed, is rendered metabolizable by the plant, thereby enhancing its own defense characteristics. The molecule of copper is rendered systemic so that its action is accomplished, most importantly, inside the treated plants. Thus a continuity of protection and a reinvigorating effect on the plant are assured, which is evidenced by the quantity and unblemished quality of the fruit.
In a replicated study with controls, 10 foliar sprays were applied between March and August at times most useful to control the disease in the course of the season's adverse weather variables which encourage Erwinia. By the time of harvest, the normal state of distress of the trees' photosynthetic activity with standard copper bactericides such as copper oxychloride or the classic Bordeau mixture was missing. The consequences of this physiology were very evident at the time of harvest quantitatively and qualitatively.

white flies = assay: Control of white flies on poinsettia; type: in vivo
From the text: It was compared to untreated plants or plants treated with the commercial insecticides Bifenthrin, Neem Oil or Acephate.

Erwinia Amylovora = assay: KT-19827 compared with an SAR on pear with Erwinia; type: in vivo
From the text: Systemic Activator Resistance (SAR) materials affect the treated plant so it resists outbreaks of disease over longer periods of time. KT-19827 was compared with a leading commercial SAR called Bion or Actiguard (Acibenszolar-S-Methyl by Novaritis) against Erwinia Amylovora on pear trees, variety “Butirra”. The test was for the full growing season. Efficacy against Erwinia on the trees and fruit was 98% for […], 73.6% for Bion and zero on the untreated control pear trees. Standard label rates for each product were applied as a foliar spray in an equal manner.
The study was not designed to measure the comparative quantity of pears produced on the three plots.

[2] = tested on: two spotted spider mite, Tetranychus urticae; assay: Spider mite control on greenhouse-grown potted miniature roses; type: in vivo; settings: rate 0.4 oz. per 10 gallons
From the text: Mites are a serious pest of plants grown throughout the world. […] It was compared to untreated control plants or plants treated with the commercial miticide, Avermectin, (Avid) at 0.4 oz. Per 10 gallons. There were six replicate plants per treatment. Adult and nymph spider mites were counted on three areas of each plant (upper, middle, lower). The sum of these three measurements is presented.

Spider Mite = type: in vivo; settings: 0.4 ounces per 10 gallons
Description: Another experiment was conducted on Marigolds in 6-inch pots. […] It was compared to untreated controls, the commercial miticide Avermectin (Avid, Merck) at 0.4 ounces per 10 gallons, and the commercial Neem-based insecticide Triact 90 at 10.0 mL per liter. There were 6 replications. Plant samples of 5 leaves were taken randomly from upper to lower plant areas.

[3] = tested on: nematode Aphielenchoides frageria; assay: Nematode trial on Anemone vitfolia; type: in vivo; settings: repeated measure ANOVA and Kruskal-Wallis ANOVA
From the text: In another trial, no control of the nematode Aphielenchoides […] on Anemone vitfolia was found as to nematode count when measured by repeated measure analysis of variance (ANOVA) and non-[…] for either KT-19827 or Avermectin. […] The symptomatic leaf analysis was done at the end of the 12 week trial period, during which 6 sprays were applied at 2 week intervals. ANOVA was the analytical measurement methodology.

Question: `CCOP(=S)(OCC)Oc1nc(Cl)c(Cl)cc1Cl` [Chlorpyrifos, chlorpyrifos] was tested. Which “Live Whitefly Nymphs (3 DAT)” value [1] did it give?
Answer: The value was 143.0bc.

Question: What about the “% Mortality” value ([1]; dead / total whiteflies) of the same compound?
Answer: The value was 34.0ab %.

Question: Which “damage to tender tissue (blooms)” value (Erwinia (Fireblight)) does the source give for “tannate complex of picro cupric ammonium formate [KT-19827]” here?
Answer: The value was “without damage to tender blooms”.

Question: Which results are given for `Cc1c(COC(=O)[C@@H]2[C@H](/C=C(\Cl)C(F)(F)F)C2(C)C)cccc1-c1ccccc1` (racemic) [Befenthria, Bifenthrin]?
Answer: Mean Number of White Flies (white flies; 6 Days After Treatment, rate 0.1): 27.7 living whitefly immatures per leaf; Mean Number of White Flies (white flies; 10 Days After Treatment, rate 0.1): 8.7 living whitefly immatures per leaf

Question: How did the “packets of harvested pears showing evidence of disease” value (Erwinia Amylovora; at harvest) turn out when `CSC(=O)c1cccc2nnsc12` [Bion, Acibenszolar-S-Methyl] was run?
Answer: Its value is 17 out of 238.

Question: And the “Efficacy against Erwinia on the trees and fruit” value (Erwinia Amylovora; pear variety Butirra, full growing season, standard label rates, foliar spray)?
Answer: The value was 73.6%.

Question: For `CC[C@H](C)[C@H]1O[C@]2(C=C[C@@H]1C)C[C@@H]1C[C@@H](C/C=C(\C)[C@@H](O[C@H]3C[C@H](OC)[C@@H](O[C@H]4C[C@H](OC)[C@@H](O)[C@H](C)O4)[C@H](C)O3)[C@@H](C)/C=C/C=C3\CO[C@@H]4[C@H](O)C(C)=C[C@@H](C(=O)O1)[C@]34O)O2` [Avermectin], which “Mean Number of Adult and Nymph Mites” value ([2]; 6 Days After Treatment, sum of upper, middle, lower plant areas) is on record?
Answer: The value was 0b.

Question: What about the “Mean Number of Adult and Nymph Mites” value ([2]; 10 Days After Treatment) of the same compound?
Answer: The value was 0.2b.

Question: And the “Mean Number of Adult and Nymph Mites” value ([2]; 16 Days After Treatment)?
Answer: The value was 0.7b.

Question: What about the “mite population, Week 2” value (Spider Mite) of the same compound?
Answer: Its value is 6.2c.

Question: What about the “mite population, Week 3” value (Spider Mite) of the same compound?
Answer: The value was 23.8c.

Question: What about the “mite population, Week 1” value (Spider Mite; samples of 5 leaves) of the same compound?
Answer: The value was 0.0b.

Question: What about the “Mean Number of White Flies” value (white flies; 6 Days After Treatment, rate 0.5) of the same compound?
Answer: The value was 26.8 living whitefly immatures per leaf.

Question: And the “Mean Number of White Flies” value (white flies; 10 Days After Treatment, rate 0.5)?
Answer: Its value is 44.5 living whitefly immatures per leaf.

Question: What about the “control as to nematode count” value [3] of the same compound?
Answer: Its value is “no control”.
